Laboratory results reported in paper PMC11765717, “In Vitro Insights into Bacteriocin-Mediated Modulation of Chicken Cecal Microbiota” (International Journal of Molecular Sciences, 2025).
Converted amounts (≈) assume the structure as drawn. Read-outs that look alike come from different tables or passages of the source. Positions of bridges follow the written chain, without caps; N, C: chain ends. Residues, ends and D or L forms follow the SMILES beside them.

Key:
chicken cecal microbiota [1] = assay: Batch fermentation of chicken cecal microbiota, 16S rRNA gene sequencing; type: cell-based, broiler chickens; details: for Impact on genera / microbiota composition, in words: 24 h of culture; for Effect on bacterial classes, in words: 12 h of cecal fermentation; for Beta diversity (PCoA of weighted Unifrac), in words: 24 h of fermentation; for Abundance of Clostridia, in words: 25 vs 250 x MIC
[2] = test system: Salmonella enterica subsp. enterica serotype Newport ATCC 6962
[3] = test system: Salmonella enterica subsp. enterica serotype Newport ATCC 6962; assay: Residual activity in cecal fermentation medium, agar well diffusion; details: over the 24 h of fermentation; agar diffusion tests
chicken cecal microbiota [4] = assay: Short-chain fatty acids in batch fermentation supernatant; type: cell-based, broiler chickens; details: 24 h; for Acetate production, in words: 250 times the MIC
Listeria ivanovii HPB28 = assay: Residual activity in cecal fermentation medium, agar well diffusion; details: over the 24 h of fermentation; agar diffusion tests
S. enterica = test system: S. enterica; set-up: method as in PMID 35543514; details: sensitive strain S. enterica; ref [63]; cited from earlier work
Description: Table 1 Minimum inhibitory concentration (MIC) of the antimicrobial compounds tested (provided in µg/mL and in µmol/L) and residual activities over time in the cecal fermentation medium, after the introduction of the compounds at 25 (top) or 250 times (bottom) the minimal inhibitory concentration (MIC).

[5] = test system: Streptococcus pyogenes RBL4; assay: Residual activity in cecal fermentation medium, agar well diffusion; type: in vitro ADME; details: over the 24 h of fermentation; based on inhibition diameters
Protocol: Sterile Viande Levure (VL) medium (16 mL in 50 mL penicillin bottles), supplemented with Tween 80, bile salts, minerals, vitamins, porcine mucin (2.0 g/L), fructo-oligosaccharide (2.5 g/L), and citrus pectin (2.5 g/L), as described previously, and adjusted to pH 6 with 5 M NaOH, was inoculated with […] fecal slurry (10% inoculum, w/v). The antimicrobial compound was added in a volume of 1 mL to obtain 25 or 250 times the minimal inhibitory concentration (Table 1).
To ensure anaerobic conditions, the bottles were inoculated and sealed in an oxygen-free chamber. They were incubated at 41 °C and 80 rpm on an orbital shaker for up to 24 h. For each experimental treatment, samples were collected at 0, 12, and 24 h and kept at −80 °C until analysis.
The inhibitory activity of each antimicrobial agent was assessed qualitatively in terms of inhibition zones around agar wells. Briefly, 80 μL of sample was added to wells in pour plates (25 mL) seeded with 250 µL of overnight culture of indicator strain. Following 18 h of incubation at the appropriate temperature, inhibition diameters were measured. Photographs were taken using ChemiDoc XRS (Bio-Rad, Hercules, CA, USA).

C. perfringens = details: sensitive strain C. perfringens; ref [62]; cited from earlier work
L. ivanovii = test system: L. ivanovii; set-up: method as in PMID 35170996; details: sensitive strain L. ivanovii; ref [64]; cited from earlier work

CN(C)[C@@H]1C(O)=C(C(N)=O)C(=O)[C@@]2(O)C(O)=C3C(=O)c4c(O)cccc4[C@@](C)(O)[C@H]3C[C@@H]12 [Tetracycline]
Impact on genera / microbiota composition, in words (chicken cecal microbiota [1]): mainly affected the Gram-negative bacteria Gallibacterium and the Gram-positive bacteria Phascolarctobacterium | Genera Enterococcus, in words (chicken cecal microbiota [1]; after 24 h): reduced | Residual Activity 6 h [2]: +++ +++ | Stability of inhibitory activity in batch fermentation, in words [3]: remained highly active

CC[C@H](C)[C@H](NC(=O)CNC(=O)[C@@H](NC(=O)[C@H](Cc1ccccc1)NC(=O)[C@H](Cc1ccc(O)cc1)NC(=O)[C@@H]1CCC(=O)NCC(=O)NCC(=O)N[C@@H](C)C(=O)NCC(=O)N[C@@H](Cc2cnc[nH]2)C(=O)N[C@@H](C(C)C)C(=O)N2CCC[C@H]2C(=O)N1)C(C)C)C(=O)NCC(=O)N[C@H](C(=O)N1CCC[C@H]1C(=O)N[C@H](C(=O)N[C@@H](CO)C(=O)N[C@@H](Cc1ccccc1)C(=O)N[C@@H](Cc1ccc(O)cc1)C(=O)NCC(=O)O)[C@@H](C)CC)[C@@H](C)O [Microcin J25] (GGAGHVPEYFVGIGTPISFYG-OH; lactam N-8)
Stability of inhibitory activity in batch fermentation, in words [2]: significant inhibitory activity at 24 h

Pediocin PA-1 (M31L) (KYYGNGVTCGKHSCSVDWGKATTCIINNGALAWATGGHQGNHKC; UniProt P29430 19-62, looked up, variant M31L)
Effect on bacterial classes, in words (chicken cecal microbiota [1]): dose-dependent effects | Impact on genera / microbiota composition, in words (chicken cecal microbiota [1]): moderate effect | Genera Enterococcus, in words (chicken cecal microbiota [1]; after 24 h, highest concentration): reduced | Butyrate levels, in words (chicken cecal microbiota [4]; lowest concentration): tended to decrease | Stability of inhibitory activity in batch fermentation, in words (Listeria ivanovii HPB28): weak activity

CO[C@H]1/C=C/O[C@@]2(C)Oc3c(C)c(O)c4c(O)c(c(/C=N/N5CCN(C)CC5)c(O)c4c3C2=O)NC(=O)/C(C)=C\C=C\[C@H](C)[C@H](O)[C@@H](C)[C@@H](O)[C@@H](C)[C@H](OC(C)=O)[C@@H]1C [Rifampicin]
Relative abundance of Bacteroidia (chicken cecal microbiota [1]; 24 h, concentrations not assigned): 0.02 | Impact on genera / microbiota composition, in words (chicken cecal microbiota [1]): mainly impacted the genera Bacteroides and Parabacteroides | Beta diversity (PCoA of weighted Unifrac), in words (chicken cecal microbiota [1]): tended to cluster separately | Genera Enterococcus, in words (chicken cecal microbiota [1]; after 24 h, lowest concentration): reduced | Acetate production, in words (chicken cecal microbiota [4]): reached maximal ranges | MIC (µM) (S. enterica): 0.47 µM (≈ 0.387 µg/mL) | MIC (µg/mL) (S. enterica): 0.39 µg/mL (≈ 0.474 µM)

Bacitracin
Stability of inhibitory activity in batch fermentation, in words [5]: least stable | Effect on bacterial classes, in words (chicken cecal microbiota [1]): dose-dependent effects | Impact on genera / microbiota composition, in words (chicken cecal microbiota [1]): mainly impacted Streptococcus and Ruminococcus together with different Clostridia (Lachnoclostridium, Erysipelatoclostridium, and Oscillibacter), while promoting the genera Escherichia/Shigella | Acetate production, in words (chicken cecal microbiota [4]): reached maximal ranges | Butyrate levels, in words (chicken cecal microbiota [4]; UHPLC-UV 210 nm): significant decrease | MIC (C. perfringens): 1.50 µg/mL

O=C(O)c1cn(C2CC2)c2cc(N3CCNCC3)c(F)cc2c1=O [Ciprofloxacin]
Impact on genera / microbiota composition, in words (chicken cecal microbiota [1]): impacted Gram-positive (Clostridia, Enterococcus and Streptococcus) as well as Gram-negative bacteria (Escherichia/Shigella and Gallibacterium) | Genera Enterococcus, in words (chicken cecal microbiota [1]; after 24 h): reduced | Residual Activity 0 h [2]: +++ +++ | MIC (µM) (S. enterica): 0.60 µM (≈ 0.199 µg/mL) | MIC (µg/mL) (S. enterica): 0.19 µg/mL (≈ 0.573 µM)

Colistin
Relative abundance of Escherichia, in words (chicken cecal microbiota [1]): dropped | Abundance of Clostridia, in words (chicken cecal microbiota [1]): dose-dependent decrease | Relative abundance of Gammaproteobacteria (chicken cecal microbiota [1]; 25× MIC): 0.03 | Effect on bacterial classes, in words (chicken cecal microbiota [1]): dose-dependent effects | Impact on genera / microbiota composition, in words (chicken cecal microbiota [1]): strongly impaired Escherichia/Shigella together with other Gram-negative bacteria (Gallibacterium and Butyricimonas) | Alpha diversity (Shannon entropy), in words (chicken cecal microbiota [1]; after 12 h, compared to bacitracin, rifampicin, tetracycline, MccE492 and nisin): lower alpha diversity | Alpha diversity (Shannon entropy), in words (chicken cecal microbiota [1]; after 24 h): lowest alpha diversity | Butyrate levels, in words (chicken cecal microbiota [4]; highest concentration): tended to decrease | Residual Activity 0 h [2]: ++ ++ | Residual Activity 6 h [2]: ++ ++ | Residual Activity 12 h [2]: ++ ++ | Residual Activity 24 h [2]: ++ ++ | MIC (µM) (S. enterica): 0.69 µM | MIC (µg/mL) (S. enterica): 0.80 µg/mL

Nisin Z
Abundance of Clostridia, in words (chicken cecal microbiota [1]): dose-dependent decrease | Effect on bacterial classes, in words (chicken cecal microbiota [1]): dose-dependent effects | Impact on genera / microbiota composition, in words (chicken cecal microbiota [1]): had the most impact on microbiota composition | Beta diversity (PCoA of weighted Unifrac), in words (chicken cecal microbiota [1]): tended to cluster separately | Genera Enterococcus, in words (chicken cecal microbiota [1]; after 24 h): reduced | Alpha diversity (Shannon entropy), in words (chicken cecal microbiota [1]; t0, as compared to control): highest diversity | Acetate production, in words (chicken cecal microbiota [4]): reached maximal ranges | Butyrate levels, in words (chicken cecal microbiota [4]; lowest concentration): tended to decrease | MIC (µM) (L. ivanovii): 0.18 µM | MIC (µg/mL) (L. ivanovii): 1.56 µg/mL

B1: Microcin E492 (peptide, UniProt Q9Z4N4 16-99, looked up)
Microcin E492: GETDPNTQLLNDLGNNMAWGAALGAPGGLGSAALGAAGGALQTVGQGLIDHGPVNVPIPVLIGPSWNGSGSGYNSATSSSGSGS
notes: 84 aa siderophore peptide produced by Klebsiella pneumoniae, produced heterologously in E. coli MC4100
Impact on genera / microbiota composition, in words (chicken cecal microbiota [1]): only minor effects | Genera Enterococcus, in words (chicken cecal microbiota [1]; after 24 h): reduced | Alteration in the relative abundance of the identified taxa, in words (chicken cecal microbiota [1]; class level): neither MccJ25 nor MccE492 induced a statistically significant alteration | Alpha diversity (Shannon entropy), in words (chicken cecal microbiota [1]; t0, as compared to control): highest diversity | MIC (µM) (S. enterica): 0.18 µM | MIC (µg/mL) (S. enterica): 1.56 µg/mL
